Experimental data reported in patent publication EP3440167B2, “FRAGRANCED COMPOSITIONS AND THEIR USE” (Unilever IP Holdings B.V., priority 2016, dated 2017).

Key:
Format in all cases: physicochemical
[1] = Experiment A: ozone chamber exposure of β-ionone on a surface, headspace SPME-GCMS; conditions: 1 hour exposure
Experimental: A β-ionone solution (10 % w/w in ethanol) was applied to a surface (20 microlitres) and was allowed to dry for one hour in a fume cupboard. The surface was then placed at the base of the ozone chamber. The ozone generator plug-in was turned on for the required time at regular intervals to achieve the desired ozone concentration inside the chamber (either 250 ppb or 350 ppb). After exposure of a surface to ozone for the desired time of 1 hour the surface was removed from the chamber and placed in a capped PVC container. The surface was left in the PVC container for 10 min and then an additional 20 min with an SPME fibre exposed to the head-space environment of the container. The headspace was measured by SPME-GCMS and the ratios of β-cyclocitral to β-ionone determined as follows: […]

[2] = Experiment B: ozone chamber exposure at 100 ppb over time, headspace SPME-GCMS; conditions: 100 ppb ozone
Experimental: A β-ionone solution (10 % w/w in ethanol) was applied to a surface (20 microlitres) and was allowed to dry for one hour in a fume cupboard. The surface was then placed at the base of the ozone chamber. The ozone generator plug-in was turned on for the required time at regular intervals to achieve the desired ozone concentration inside the chamber (either 250 ppb or 350 ppb). After exposure of a surface to ozone for the desired time of 1 hour the surface was removed from the chamber and placed in a capped PVC container. The surface was left in the PVC container for 10 min and then an additional 20 min with an SPME fibre exposed to the head-space environment of the container. The headspace was measured by SPME-GCMS and the ratios of β-cyclocitral to β-ionone determined as follows:
This experiment was run like Experiment A, except that the ozone level used was 100 ppb and after 1,2,3,4 and 5 hours measurements of headspace were made and the ratios of β-cyclocitral / β-ionone were calculated from headspace concentration.

[3] = Example 3: exposure of β-ionone on filter paper in ozone-free glovebox, GC-MS of headspace and extract; conditions: ozone below detection limit, 1 hour exposure
Experimental: A 0.3% solution of β-ionone in ethanol and a 0.3% solution of β-cyclocitral were prepared. 1 ml of the β-ionone was placed on a piece of filter paper (cellulose, 75 mm dia.) and left for 2 minutes for the ethanol to evaporate. The filter paper was then placed in a glovebox containing an ozone "scrubber" and an ozone monitor (Aeroqual series 200 fitted with a 0 to 0.5 ppm sensor). Throughout the experiment the ozone level inside the glovebox was below the detection limit of the monitor. The ozone scrubber comprised an air pump (Interpet AirVolution AV4), pumping air at a rate of 600 l/hr through 0.75 g/l sodium thiosulphate solution.
After 1 hour exposure the filter paper was sealed in a 500 ml glass jar that had been adapted such that a SPME fibre could be introduced via a septum in the lid. The headspace above the sample was analysed using a Carboxen/DVB/PDMS SPME fibre using a 30 minute exposure. The fibre was then analysed by GC-MS. The filter paper was then removed, placed in a 28 ml glass vial and 3 ml of ethanol added. The vial was rollered for two hours after which the free ethanol was removed and analysed by GC-MS. The β-cyclocitral in ethanol solution was also analysed to indicate the appropriate retention time. […]

CC(=O)/C=C/C1=C(C)CCCC1(C)C [β-ionone]
ratio of β-cyclocitral to β-ionone ([1]; 250 ppb ozone): 0.72 | ratio of β-cyclocitral to β-ionone ([1]; 350 ppb ozone): 2.67 | ratio of β-cyclocitral / β-ionone ([2]; 1 hour): 0.43 | ratio of β-cyclocitral / β-ionone ([2]; 2 hour): 0.95 | ratio of β-cyclocitral / β-ionone ([2]; 3 hour): 1.87 | ratio of β-cyclocitral / β-ionone ([2]; 4 hour): 7.00 | ratio of β-cyclocitral / β-ionone ([2]; 5 hour): 11.00 | β-cyclocitral detected in the headspace ([3]; SPME GC-MS of headspace): No β-cyclocitral was detected | β-cyclocitral detected on the filter paper ([3]; ethanol extract of filter paper, GC-MS): No β-cyclocitral was detected
